From patent US6544502B2, “Skin treatment with a water soluble antibiotic dissolved in an electrolyzed water” (Wasatch Pharmaceutical Inc., priority 1992, dated 2003) come the findings set out here.

A short description of series [1]: Stability of antibiotic in aqueous solution. The class given is physicochemical. The conditions noted are these: hydrate salt in water.
Series [2] in a line: Solubility of antibiotic (water, lipoid). The class given is physicochemical.

Turning to Doxycycline hyclate, the “stability of water soluble salt” value in series [1] was “no pH sensitivity or breakdown into the inactive ingredients”. In series [2], the lipoid solubility entry is reported as “high degree of lipoid solubility” and the solubility in water result is listed as “readily soluble in water”.
